Source: patent publication US20090221559A1 (priority 2005, published 2009)
Where two headings read alike, the source gives them in different places.

Experiments:
[1] = molecular target: T1, HCV NS5B polymerase (His-tagged, C-terminal 21 amino acid deleted NS5B, HC-J4) (Hepatitis C virus genotype 1b, UniProt O92972); assay: NS5b polymerase assay (biochemical RdRp assay, 3H-GTP incorporation, SPA beads); design: species or system HCV genotype 1b
T1 construct: The cDNA encoding NS5B amino acid 1-570 (HC-J4, genotype 1b); His tag (His6, from pET-21b) (C); made in house; host or cells: E. coli BL21 (DE3)
T1 sequence (O92972 2417-3000, looked up, stated change not applied): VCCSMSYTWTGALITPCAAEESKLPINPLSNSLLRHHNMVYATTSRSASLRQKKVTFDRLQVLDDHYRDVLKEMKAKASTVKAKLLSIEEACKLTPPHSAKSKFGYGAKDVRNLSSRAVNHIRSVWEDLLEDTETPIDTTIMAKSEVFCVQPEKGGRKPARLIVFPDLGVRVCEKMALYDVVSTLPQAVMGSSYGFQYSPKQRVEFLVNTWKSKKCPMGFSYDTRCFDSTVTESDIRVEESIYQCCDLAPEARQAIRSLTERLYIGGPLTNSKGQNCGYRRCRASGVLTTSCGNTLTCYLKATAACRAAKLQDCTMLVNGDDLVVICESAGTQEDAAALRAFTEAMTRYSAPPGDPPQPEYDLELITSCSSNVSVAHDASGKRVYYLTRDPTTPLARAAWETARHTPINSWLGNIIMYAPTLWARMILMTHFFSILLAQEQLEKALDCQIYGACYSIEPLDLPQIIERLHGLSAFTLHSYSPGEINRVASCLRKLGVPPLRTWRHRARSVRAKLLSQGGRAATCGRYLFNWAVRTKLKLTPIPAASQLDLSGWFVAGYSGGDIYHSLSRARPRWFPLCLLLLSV
Method in brief: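 3H-GTP incorporation into newly made RNA was captured on SPA beads added in EDTA after 2 h at 25 °C. Compounds in DMSO met preformed enzyme–template complex (200 nM truncated His-NS5B, HC-J4 1b; biotin-oligo(rG13)/poly(rC)) for 15 min at RT, then 600 nM GTP, 5 mM MgCl2, Tris pH 7.5 started polymerization.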

[2] = system: HCV replicon RNA replication in Huh-7 luc/neo (Huh-Luc) cells; assay: HCV replicon assay (stable replicon cell reporter assay, luciferase read-out); format: cell-based, HCV type 1b
Method in brief: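 Three-day compound exposure used Huh-Luc cells, which harbour an autonomously replicating genotype 1b NS3-NS5B replicon expressing luciferase and neo^R. Luciferase signal served as the replication read-out, and dose-response curves came from several concentrations per compound.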

[3] = NS5B Polymerase Assay IC50, 200 nM enzyme, 3H-GTP incorporation, 2 h at 25° C.
[4] = Hepatitis C virus, Huh-7, 72 h, read-out: Replicon Assay EC50, Huh-Luc cells, three days incubation, luciferase activity
[5] = NS5B Polymerase Assay IC50 (μM)
[6] = Hepatitis C virus, Huh-7, 72 h, read-out: Replicon Assay EC50 (μM), Huh-Luc cells, incubation of three days, luciferase activity
[7] = 200 nM enzyme, 3H-GTP incorporation, 2 h at 25° C., read-out: NS5B Polymerase Assay IC50
[8] = Huh-Luc cells, three days incubation, luciferase activity, read-out: Replicon Assay EC50
[9] = read-out: Replicon Assay EC50, Huh-Luc cells, three days incubation, luciferase activity

Structure (SMILES) | IC50 [1, 3] | EC50 [2, 4] | IC50 [1, 5] | EC50 [2, 6] | further results
COc1c(Cl)cc(Cl)cc1C1C2=C(CC(C)(C)CC2=O)Nc2ccccc2N1C(C)=O (stereo not drawn) [compound 73] | > 42.7 µM | 19.9 µM |  |  | 
CC(=O)N1c2ccccc2NC2=C(C(=O)CC(C)(C)C2)C1c1ccc(-c2ccc([N+](=O)[O-])cc2Cl)o1 (stereo not drawn) [compound 279] | > 42.7 µM | 9.27 µM |  |  | 
CCn1c2ccccc2c2cc(C3Nc4ccccc4NC4=C3C(=O)CC(C)(C)C4)ccc21 (stereo not drawn) [compound 501] |  |  | > 42.7 µM | 19.8 µM | 
CC(=O)N1c2ccccc2NC2=C(C(=O)CC(C)(C)C2)C1c1ccc(N(C)C)cc1 (stereo not drawn) [compound 122] | > 42.7 µM | > 32 µM |  |  | 
CCC(=O)N1c2ccccc2NC2=C(C(=O)CC(c3ccco3)C2)C1c1cccc([N+](=O)[O-])c1 (stereo not drawn) [compound 288] |  |  |  |  | IC50 [1, 7]: > 42.7 µM; EC50 [2, 8]: 25 µM
COc1ccc(C2CC(=O)C3=C(C2)Nc2ccccc2NC3c2ccc(C)cc2)cc1 (stereo not drawn) [compound 384] |  |  | 4.58 µM | 15.9 µM | 
COc1ccc(C2Nc3ccccc3NC3=C2C(=O)CC(C)(C)C3)cc1COc1ccc(F)cc1F (stereo not drawn) [compound 430] |  |  | > 33.3 µM | 10.8 µM | 
CCN(CC)c1ccc(C2Nc3ccccc3NC3=C2C(=O)CC(c2ccc(OC)cc2)C3)cc1 (stereo not drawn) [compound 363] |  |  | > 42.7 µM | 25.8 µM | 
Cc1ccc(C2CC(=O)C3=C(C2)Nc2ccccc2NC3c2ccccc2)cc1 (stereo not drawn) [compound 414] |  |  | > 33.3 µM | 13.6 µM | 
CC(=O)N1c2ccccc2NC2=C(C(=O)CC(C)(C)C2)C1c1ccc(OCc2cccnc2)cc1 (stereo not drawn) [compound 140, 10-acetyl-3,3-dimethyl-11-[4-(3-pyridylmethoxy)phenyl]-2,3,4,5,10,11-hexahydro-1H-dibenzo[b,e][1,4]diazepin-1-one] | 19.1 µM | 7.23 µM |  |  | 
O=C1CC(c2ccco2)CC2=C1C(c1cccc([N+](=O)[O-])c1)N(C(=O)c1ccccc1)c1ccccc1N2 (stereo not drawn) [compound 286] |  |  |  |  | IC50 [1, 7]: > 42.7 µM; EC50 [2, 8]: 19.2 µM
CC(C)C(=O)N1c2ccccc2NC2=C(C(=O)CC(C)(C)C2)C1c1cccs1 (stereo not drawn) [compound 243] | > 33.3 µM | 25.5 µM |  |  | 
COc1ccc(C2C3=C(CC(c4cccs4)CC3=O)Nc3ccccc3N2C(=O)Nc2ccc(Cl)c(Cl)c2)cc1 (stereo not drawn) [compound 287] | > 33.3 µM | 5.01 µM |  |  | 
Cc1ccc(C2C3=C(CC(C)(C)CC3=O)Nc3ccccc3N2C(=O)Cc2ccccc2)o1 (stereo not drawn) [compound 271] | > 33.3 µM | 22.9 µM |  |  | 
COc1ccc(C2CC(=O)C3=C(C2)Nc2ccccc2N(C(C)=O)C3c2cccc(Cl)c2)cc1OC (mixture of isomers) [compound 198] |  |  |  |  | IC50 [1, 7]: > 33.3 µM; EC50 [2, 8]: 9.22 µM
COc1ccc(C2C3=C(CC(C)(C)CC3=O)Nc3ccccc3N2C(=O)c2ccc(Cl)cc2)cc1OC (stereo not drawn) [compound 68] | > 42.7 µM | 23.1 µM |  |  | 
CCCCCOc1ccc(C2C3=C(CC(C)(C)CC3=O)Nc3ccccc3N2C(C)=O)cc1 (stereo not drawn) [compound 102] | > 42.7 µM | > 32 µM |  |  | 
CCCCC(=O)N1c2ccccc2NC2=C(C(=O)CC(C)(C)C2)C1c1ccccc1Cl (stereo not drawn) [compound 66] | > 42.7 µM | 23 µM |  |  | 
CC(=O)N1c2ccccc2NC2=C(C(=O)CC(C)(C)C2)C1c1ccc(Br)s1 (stereo not drawn) [compound 282] | > 42.7 µM | 17 µM |  |  | 
CC(=O)N1c2ccccc2NC2=C(C(=O)CC(c3ccccc3OCc3ccccc3)C2)C1c1cccc(OC(=O)c2ccc(Cl)cc2)c1 (single isomer, unassigned) [compound 192, 10-Acetyl-3-(2-benzyloxyphenyl)-11-[3-(4-chlorobenzoyloxy)phenyl]-2,3,4,5,10,11-hexahydro-dibenzo[b,e][1,4]diazepin-1-one] |  |  |  |  | IC50 ([1]; read-out: NS5B Polymerase Assay IC50, 200 nM enzyme, 3H-GTP incorporation, 2 h at 25° C.): > 42.7 µM; EC50 [2, 9]: 4.87 µM
Cc1ccc(C2C3=C(CC(c4cccc([N+](=O)[O-])c4)CC3=O)Nc3ccccc3N2C(=O)c2ccccc2)cc1 (mixture of isomers) [compound 212] |  |  |  |  | IC50 [1, 7]: > 42.7 µM; EC50 [2, 8]: 23.9 µM

Structure (SMILES) | IC50 [1, 3] | EC50 [2, 4] | IC50 [1, 5] | EC50 [2, 6] | further results
CC1(C)CC(=O)C2=C(C1)Nc1ccccc1NC2c1ccccc1OCc1ccccc1 (stereo not drawn) [compound 425] |  |  | > 42.7 µM | 13.2 µM | 
COc1c(Cl)cc(Cl)cc1C1C2=C(CC(C)(C)CC2=O)Nc2ccccc2N1C(=O)C(C)C (stereo not drawn) [compound 62] | > 42.7 µM | 22.6 µM |  |  | 
CC1(C)CC(=O)C2=C(C1)Nc1ccccc1NC2c1ccc(C(F)(F)F)cc1 (stereo not drawn) [compound 429] |  |  | > 42.7 µM | > 31 µM | 
COc1ccc(C2CC(=O)C3=C(C2)Nc2ccccc2NC3c2ccc([N+](=O)[O-])cc2)cc1 (stereo not drawn) [compound 387] |  |  | > 42.7 µM | 5.56 µM | 
CCOc1cc(C2Nc3ccccc3NC3=C2C(=O)CC(c2ccc(OC)cc2)C3)cc(Br)c1OC (stereo not drawn) [compound 406] |  |  | > 42.7 µM | 7.29 µM | 
O=C1C[C@@H](c2ccccc2)CC2=C1[C@H](c1coc3ccccc3c1=O)Nc1ccccc1N2 [compound 488] |  |  | > 42.7 µM | 17.8 µM | 
CCN(CC)c1ccc(C2CC(=O)C3=C(C2)Nc2ccccc2NC3c2ccccc2)cc1 (stereo not drawn) [compound 376] |  |  | > 42.7 µM | 9.45 µM | 
O=C1CC(c2ccccc2)CC2=C1C(c1cccc(OCc3ccccc3)c1)Nc1ccccc1N2 (stereo not drawn) [compound 373] |  |  | > 42.7 µM | 9.42 µM | 
CCC(=O)N1c2ccccc2NC2=C(C(=O)CC(C)(C)C2)C1c1ccc(Br)s1 (stereo not drawn) [compound 249] | > 42.7 µM | 3.66 µM |  |  | 
CCn1c2ccccc2c2cc(C3Nc4cc(C)c(C)cc4NC4=C3C(=O)CC(C)(C)C4)ccc21 (stereo not drawn) [compound 504] |  |  | 39.1 µM | 17.1 µM | 
COc1ccc(C2CC(=O)C3=C(C2)Nc2ccccc2NC3c2cc(OC)c(OC)cc2OC)cc1OC (stereo not drawn) [compound 403] |  |  | > 42.7 µM | 7.12 µM | 
O=C1CC(c2ccc(Cl)cc2)CC2=C1C(c1ccccc1C(F)(F)F)Nc1ccccc1N2 (stereo not drawn) [compound 349] |  |  | > 42.7 µM | 2.86 µM | 
CCCCC(=O)N1c2ccccc2NC2=C(C(=O)CC(C)(C)C2)C1c1ccc(F)cc1 (stereo not drawn) [compound 10] | > 33.3 µM | 19.5 µM |  |  | 
O=C1CC(c2ccccc2)CC2=C1C(c1cccc(Oc3ccccc3)c1)Nc1ccccc1N2 (stereo not drawn) [compound 361] |  |  | > 42.7 µM | 6.65 µM | 
Cc1ccc(C2Nc3ccccc3NC3=C2C(=O)CC(c2ccccc2)C3)cc1[N+](=O)[O-] (stereo not drawn) [compound 358] |  |  | > 42.7 µM | 20.4 µM | 
CC(=O)N1c2ccccc2NC2=C(C(=O)CC(C)(C)C2)C1c1ccccc1OCc1ccccc1 (stereo not drawn) [compound 44] | > 42.7 µM |  |  |  | EC50 [2, 9]: 9.54 µM
CC1(C)CC(=O)C2=C(C1)Nc1ccccc1N(C(=O)C(F)(F)F)C2/C=C/c1ccccc1 (racemic) [compound 244] | > 33.3 µM | 15.9 µM |  |  | 
CC(C)C(=O)N1c2ccccc2NC2=C(C(=O)CC(C)(C)C2)C1c1ccc(Br)s1 (stereo not drawn) [compound 262] | > 42.7 µM | 5.54 µM |  |  | 
COc1ccc(C2C3=C(CC(c4ccc(C)cc4)CC3=O)Nc3ccccc3N2C(=O)c2ccccc2)cc1OC (mixture of isomers) [compound 197] |  |  |  |  | IC50 [1, 7]: > 33.3 µM; EC50 [2, 8]: 8.97 µM
CC1(C)CC(=O)C2=C(C1)Nc1ccccc1NC2c1ccc(OCc2ccccc2)cc1OCc1ccccc1 (stereo not drawn) [compound 445, 11-[2,4-dibenzyloxyphenyl]-3,3-dimethyl-2,3,4,5,10,11-hexahydro-1H-dibenzo[b,e][1,4]diazepin-1-one] |  |  | > 133 µM | 1.98 µM | 
CCCCC(=O)N1c2ccccc2NC2=C(C(=O)CC(C)(C)C2)C1c1ccc2c(c1)OCO2 (stereo not drawn) [compound 265] | > 42.7 µM | 11.3 µM |  |  | 
